Viability data for six compounds are collected here from ChEMBL document CHEMBL3853355, “Six new compounds from Atractylodes lancea and their hepatoprotective activities” (2016).

This assay has as its system HepG2. The assay can be described thus: Hepatoprotective activity against N-acetyl-p-aminophenol-induced cell injury in human HepG2 cells assessed as cell survival at 10 uM after 48 hrs by MTT assay (reference value: 39.87%). The format is functional. Conditions: HepG2, 48 h, read-out: Survival. For orientation: Tetrazolium assays rely on reduction of a dye to a coloured formazan, in cell work by metabolically active cells.

With `C/C(=C\Cc1cc(C(=O)O)cc2c1O[C@H](C(C)(C)O)[C@H]2O)CO`, the viability at 10 µM was found to be 53.6%.
Regarding `COc1cc(-c2coc3c([C@@H]4O[C@H](CO)[C@@H](O)[C@H](O)[C@H]4O)c(O)ccc3c2=O)ccc1O`, the viability at 10 µM was 45.2%.
Regarding `C[C@@H]1O[C@@H](Oc2ccc(C(=O)O)cc2)[C@H](O)[C@H](O[C@@H]2O[C@H](CO)[C@@H](O)[C@H](O)[C@H]2O)[C@H]1O`, the viability at 10 µM was 54.7%.
On to `COc1cc(C(=O)O)ccc1O[C@@H]1O[C@@H](C)[C@H](O)[C@@H](O[C@@H]2O[C@H](CO)[C@@H](O)[C@H](O)[C@H]2O)[C@H]1O`, for which the viability at 10 µM came to 54.6%.
As for `COC(=O)c1cc(OC)c2c(c1-c1c(CO)cc(OC)c3c1OCO3)OCO2` [BICYCLOL], the figure is 52.9%; as for `O=c1c(-c2ccc(O)cc2)coc2c([C@@H]3O[C@H](CO)[C@@H](O)[C@H](O)[C@H]3O)c(O)ccc12` [PUERARIN], 41.3%.
